Laboratory results: doi:10.1101/2024.01.05.573888v1 (biorxiv, 2024)
Like-named read-outs stand apart in the source and are kept apart here.

What was measured:
Assay in all cases: ITC
Format in all cases: binding
PaKPR2 [1] = molecular target: T1, PaKPR2 (Pseudomonas aeruginosa, UniProt A0A0H2Z9K5)
T1 sequence (A0A0H2Z9K5 1-315): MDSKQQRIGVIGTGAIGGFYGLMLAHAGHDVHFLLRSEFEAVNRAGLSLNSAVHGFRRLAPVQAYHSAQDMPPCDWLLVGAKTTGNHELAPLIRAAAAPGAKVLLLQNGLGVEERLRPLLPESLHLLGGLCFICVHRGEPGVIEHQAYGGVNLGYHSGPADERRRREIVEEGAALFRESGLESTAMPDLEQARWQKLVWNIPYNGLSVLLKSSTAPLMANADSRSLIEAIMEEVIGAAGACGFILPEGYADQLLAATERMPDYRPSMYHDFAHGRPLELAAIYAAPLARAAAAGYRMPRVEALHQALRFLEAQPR

PaKPR2 [2] = molecular target: T1, PaKPR2; remark: listed apart in the source
PaKPR2 [3] = molecular target: T1, PaKPR2; remark: listed apart in the source

| Compound | Kd (PaKPR2 [1]) [µM] | other results |
| --- | --- | --- |
| O=C(O)C(=O)c1cccs1 | 1.34 | – |
| O=C(O)C(=O)c1ccco1 [2-Furyl glyoxylate] | 0.392 | – |
| NC(=O)C1=CN([C@@H]2O[C@H](COP(=O)(O)OP(=O)(O)OC[C@H]3O[C@@H](n4cnc5c(N)ncnc54)[C@H](OP(=O)(O)O)[C@@H]3O)[C@@H](O)[C@H]2O)C=CC1 [NADPH] | – | Kd (PaKPR2 [2]): 7.68 µM |
| NC(=O)C1=CN([C@@H]2O[C@H](COP(=O)(O)OP(=O)(O)OC[C@H]3O[C@@H](n4cnc5c(N)ncnc54)[C@H](O)[C@@H]3O)[C@@H](O)[C@H]2O)C=CC1 [NADH] | 98 | – |
| O=C(O)C(=O)c1ccccc1 [Phenyl glyoxylate] | 3.53 | – |
| CC(C)CC(=O)C(=O)O [2-ketoisocaproate] | – | Kd (PaKPR2 [3]): 3.05 µM |
| O=C(O)C(=O)CCc1ccccc1 [2-oxo-4-phenylbutanoic acid] | 9.09 | – |
| CC[C@H](C)C(=O)C(=O)O [3methyl 2 ketopentanoate] | – | Kd (PaKPR2 [2]): 11.2 µM |
